Source: patent US20170049777A1, “COMPOSITIONS, METHODS AND USES FOR THE TREATMENT OF DIABETIC NEUROPATHIES” (Pharnext, priority 2014, published 2017)
Read-outs that look alike come from different tables or passages of the source.

Columns and labels:
[1] = system: DRG explants from STZ rats; experiment: Neurite outgrowth from dorsal root ganglia explants from STZ rats; assay type: cell-based, rat
[2] = system: sensory neurons and Schwann cells co-culture; experiment: Myelination in co-culture of sensory neurons and Schwann cells under high glucose (MBP expression); assay type: cell-based, rat; design: key: +: significant improvement in length of myelinated axons when compared to non-treated conditions as assessed by MBP expression; conditions: 45 mmol/L glucose, 50 μg/mL ascorbic acid, MBP staining, 5, 9, 10, 11 and 13 days
Procedure: A model of co-culture was used as an in vitro model of diabetes. This model of myelination consists in co-culturing sensory neurons and Schwann cells from Wistar rats dissociated dorsal root ganglia (DRG).
The aim of this study is to assess the effect of tested compounds and compound combinations on myelination process under high glucose conditions mimicking diabetes. The effect of the tested compounds on myelination, either in high glucose concentration or not, is assessed by evaluating Myelin Basic Protein (MBP) expression in presence of ascorbic acid.
Fifteen days gestation pregnant female rats are killed by cervical dislocation. The embryos are removed from the uterus and are at similar foetal stage of development.
Rat DRG are cultured as previously described by Cosgaya et al. and Rangaraju et al..
Each embryo is dispatched on numerating petri dish (35 mm of diameter). DRG of each embryo is collected, placed in ice-cold medium of Leibovitz (L15, Invitrogen). At the end of the dissection, DRG of TGM are pooled and dissociated by trypsinization (trypsin EDTA, 0.05%; Invitrogen) for 20 min at 37° C. The reaction is stopped by addition of DMEM containing 10% of foetal bovine serum (FBS) in the presence of DNAase I (Roche). The suspension is triturated with a 10 mL pipette. Cells are then centrifuged at 350×g for 10 min at room temperature. The pellet of dissociated cells is resuspended in neurobasal medium (Invitrogen) containing 2% of B27 (Invitrogen), 1% of penicillin-streptomycin (Invitrogen), 1% de L glutamine and 50 ng/mL NGF (Sigma). This medium is the neuronal medium. Viable cells are counted in a Neubauer cytometer using the trypan blue exclusion test (Sigma) and seeded on the basis of 10 000 cells per well in 96 well-plates (Greiner) treated with poly-L-lysine. The plates are maintained at 37° C. in a humidified incubator, in an atmosphere of air (95%)-CO2 (5%). Half of the standard neuronal culture medium is changed every other day. The cultures are maintained in standard neurobasal medium for 7 days to allow Schwann cells to populate the sensory neuron neurites. On day 7, the cultures are fed with standard neuronal medium supplemented or not with 50 μg/mL ascorbic acid in order to initiate basal lamina formation and myelination.
On Day 7, the Following Tested Compounds (Alone or in Combination) Listed in Table 5 are added in the medium with 50 μg/mL ascorbic acid. Basal glucose in culture medium is 25 mmol/L, which is necessary for DRG neuron survival. To produce a hyperglycemic insult, 20 mmol/L additional glucose (total 45 mmol/L glucose) is added to the media for the period specified.
The tested compounds are incubated for 5 different times: 5, 9, 10, 11 and 13 days.
Three separate and independent cultures of DRG are done. These conditions are assessed in presence of ascorbic acid, 6 wells per condition. The solution ready to use of all tested compounds are extemporaneously prepared from a stock solution, stored at −20° C. This solution is prepared once a week. Half of the standard neuronal medium supplemented with tested compounds, ascorbic acid (each at the concentration 1×) and glucose are changed every other day.
After 5, 9, 10, 11 and 13 days of incubation, cells are fixed by a cold solution of ethanol (95%) and acetic acid (5%) for 10 min. The cells are permeabilized and blocked with PBS containing 0.1% saponin and 10% goat serum for 15 min. Then, the cells are incubated with a specific marker of myelin: polyclonal antibody anti-myelin basic protein (MBP) antibody (Sigma 118K0431).
Nuclei of neurons are labelled by a fluorescent marker (Hoechst solution, SIGMA ref B1155).
Per well, 20 pictures are taken using InCell Analyzer™ 1000 (GE Healthcare) with 20× magnification. All images are taken in the same conditions. Analysis of total length of myelinated axons was automatically done (length and area around axons) using
Developer software (GE Healthcare). All values will be expressed as mean+/−s.e.mean. […]

rat cortical neurons = experiment: Neurite network length of rat cortical primary neurons under high glucose; assay type: cell-based; conditions: 45 mmol/L glucose, 24 hours, MAP-2 staining
Procedure: Rat cortical neurons are cultured as described by Singer et al.. Briefly, pregnant female rats of 15 days gestation are killed by cervical dislocation (rats Wistar) and the foetuses are removed from the uterus. The cortex is then removed and placed in ice-cold medium of Leibovitz (L15) containing 2% of Penicillin 10.000 U/mL and Streptomycin 10 mg/mL and 1% of bovine serum albumin (BSA). Cortices are dissociated by trypsin for 20 min at 37° C. (0.05%). The reaction is stopped by the addition of Dulbecco's modified Eagle's medium (DMEM) containing DNasel grade II and 10% of foetal calf serum (FCS). Cells are then mechanically dissociated by 3 serial passages through a 10 mL pipette and centrifuged at 515×g for 10 min at +4° C. The supernatant is discarded and the pellet of cells is re-suspended in a defined culture medium consisting of Neurobasal supplemented with B27 (2%), L-glutamine (0.2 mM), 2% of PS solution and 10 ng/mL of BDNF. Viable cells are counted in a Neubauer cytometer using the trypan blue exclusion test. The cells are seeded at a density of 30 000 cells/well in 96 well-plates (wells were pre-coated with poly-L-lysine (10 μg/mL)) and were cultured at +37° C. in a humidified air (95%)/CO2 (5%) atmosphere.
After 10 days of culture, cells are incubated with drugs and their combinations. After 1 hour, medium glucose concentration is raised to 45 mmol/L glucose in defined medium without BDNF but together with tested compound. Cortical neurons are so cultured for 24 hours. BDNF (10 ng/mL) is used as a positive (neuroprotective) control. Three independent cultures were performed per condition, 6 wells per condition.
After 24 hours of culture in high glucose conditions, the supernatant is taken off and the cortical neurons are fixed by a cold solution of ethanol (95%) and acetic acid (5%) for 5 min. After permeabilization with 0.1% of saponin, cells are blocked for 2 hours with PBS containing 1% foetal calf serum. Then, cells are incubated with monoclonal antibody anti microtubule-associated-protein 2 (MAP-2; Sigma). This antibody stains specifically cell bodies and neurites of neurons. […] Nuclei of neurons are labelled by a fluorescent marker (Hoechst solution, Sigma).
Per well, 10 pictures are taken using InCell Analyzer™ 1000 (GE Healthcare) with 20× magnification. All pictures are taken in the same conditions. Analysis of the neurite network is done using Developer software (GE Healthcare) in order to assess the total length of neurite network.

[3] = spinal cord explants from diabetic rats cultured 24-48-72 hours with compound

| Structure (SMILES) | protecting DRG from apoptosis and/or improving neurite outgrowth [1] | Protection of neurite network, DRG explants from STZ rats [1, 3] | Myelinated axon length [2] | Protection of neurite network, rat cortical primary cell culture (rat cortical neurons) | Protection of neurite network, DRG explants from STZ rats [1] |
| --- | --- | --- | --- | --- | --- |
| CC(=O)NCCCS(=O)(=O)O [acamprosate] | particularly efficient | + | + | + | – |
| NCC(CC(=O)O)c1ccc(Cl)cc1 (stereo not drawn) [baclofen] | particularly efficient | – | + | + | + |
| CCN(CC)CCOCCOC(=O)C1(c2ccccc2)CCCC1 [carbetapentane] | particularly efficient | + | + | + | – |
| CN/C(=N/CCSCc1nc[nH]c1C)NC#N [cimetidine] | particularly efficient | + | + | + | – |
| C[C@@H](NCCCc1cccc(C(F)(F)F)c1)c1cccc2ccccc12 [cinacalcet] | particularly efficient | + | + | + | – |
| CN(C)CC[C@@H](c1ccc(Br)cc1)c1ccccn1 [dexbrompheniramine] | particularly efficient | + | + | + | – |
| CCN(CC)C(=O)N1CCN(C)CC1 [diethylcarbamazine] | particularly efficient | + | + | + | – |
| CC(C(O)c1ccc(O)cc1)N1CCC(Cc2ccccc2)CC1 (stereo not drawn) [ifenprodil] | particularly efficient | + | + | + | – |
| C[C@@H]1CC(=O)NN=C1c1ccc(NN=C(C#N)C#N)cc1 [levosimendan] | particularly efficient | + | + | + | – |
| Cc1cccc(C)c1OCC(C)N (stereo not drawn) [mexiletine] | particularly efficient | + | + | + | – |
| CO[C@]12C[C@@H](COC(=O)c3cncc(Br)c3)CN(C)[C@@H]1Cc1cn(C)c3cccc2c13 [nicergoline] | particularly efficient | + | + | + | – |
| C1COC(NC(C2CC2)C2CC2)=N1 [rilmenidine] | particularly efficient | + | + | + | – |
| Cc1ccc(C(=O)C(C)CN2CCCCC2)cc1 (stereo not drawn) [tolperisone] | particularly efficient | + | + | + | – |
| Cc1cccc(Nc2ccncc2S(=O)(=O)NC(=O)NC(C)C)c1 [torasemide] | particularly efficient | + | + | + | – |
| Nc1nc(N)c2nc(-c3ccccc3)c(N)nc2n1 [triamterene] | particularly efficient | + | + | + | – |
